For one data set, the system named is HIV-1 pNL4-3. Put plainly: Chronically HIV-1 infected HeLa-CD4 cells, viral RNA by qRT-PCR / p24. The class given is cell-based. The method, then:
FIG. 1G: p24 antigen quantification. Viral supernatants recovered from cells described in FIG. 1B, grown for 60 days, were assayed for their p24 antigen content using a sandwich ELISA kit. Error bars represent standard deviations.
First-strand cDNA from RNA for qPCR was prepared using […]™ first-strand cDNA kit (Invitrogen), following the manufacturer's instructions, using approximately 5 μg of RNA as starting material and random hexamers as first-strand primers. Quantitative PCR was performed with an aliquot of cDNA as template, using […]® 480 SYBR Green I Master (Roche) in a 20 μL reaction according to the manufacturer's instructions. […] The primers used were as follows: […]
Such an early time point rules out de novo infections. […] This conclusion was further supported by the fact that treatment of cells that were chronically infected, and therefore continuously shedding the virus (without incurring new infections, due to down-regulation of CD4 from the cell surface), reduced virus production to undetectable levels (FIG. 1F). […] Results were similar when viral release from cells treated for 60 days were measured by p24 enzyme-linked immunosorbent assay (ELISA) (FIG. 1G).

The next data set concerns HIV. Put plainly: p24 production from CD4+ T cells of viremic HIV-infected subjects. The class given is cell-based, human. Particulars: 100 nM dCA added to ARVs. The procedure: Viral production was measured in the supernatant by a sensitive in-house ELISA for capsid p24 and normalized to the negative control (Mock). Statistical significance was assessed by a paired t-test.
All patients provided written informed consent, according to the guidelines of the ethics committee of the Oregon Health and Science University. […] Viral production was measured in the supernatant by a sensitive in-house ELISA specific for the viral capsid protein, p24. […] Viral production was measured by quantification of viral particle-associated RNA by ultra-sensitive two-step quantitative real-time reverse transcription-PCR (RT-qPCR). Briefly, viral particles in the cell culture supernatant were pelleted by centrifugation (60 min, 25000 g at 4° C.). To generate the standard curve, a sample of LAI-HIV with known titer was pelleted in the same run. After centrifugation, viral RNA was extracted with the QIAamp viral RNA extraction kit (Qiagen) according to the manufacturer's instructions.
Cells were grown in IL-2 to increase viability.

The next data set concerns HeLa-CD4 cells. Put plainly: MTT mitochondrial metabolic activity (cell viability). It is filed as cell-based.
Data set [1] relates to CXCR4, TK, PGK or CD4 promoters. The data set is described as follows: Transcription from cellular/control promoters. It is filed as cell-based. The procedure: FIG. 8C: Luciferase assays of TE671 cells transfected with the indicated promoter or promoter portion driving Luciferase expression. Main consensus bonding sites for transcription factors are indicated. 24 h post transfection cells were split and treated or not with CA. Forty hours later cells were lysed and luciferase activity measured as in FIG. 8A.
FIG. 8D: CEM SS and HeLa-CD4 cells stained for CD4, CXCR4 or isotype control expression followed by flow cytometry analysis.
Similar results were obtained when a Tat-encoding plasmid was transfected into HeLa-CD4 expressing LTR-Luc (FIG. 2B). […] Reporter transcription from heat-inactivated recombinant Tat protein (FIG. 2A), which was used as negative control, reflects Tat-independent activation of the HIV promoter, and accounts for approximately 20% of maximal activation.

Data set [2] deals with RNAPII occupancy of the HIV promoter and ORF. The data set is described as follows: ChIP of RNAPII on HIV promoter and ORF. The class given is cell-based, HIV-1. Particulars: 4 days treatment. The method, then: FIG. 3C: ChIP assay of the HIV promoter. […] Lysates were sonicated, the crosslinks were reversed and RNAPII was immunoprecipitated. DNA was measured by qPCR using the indicated set of primers. ChIP values are represented as percentages of input. Error bars, ±s.d. (n=3). *P<0.05; **P<0.01 (unpaired t-test).
Cells were fixed with formaldehyde (1% [vol/vol]) to crosslink the chromatin and incubated at room temperature for 10 min. Crosslinking was arrested by adding glycine[0.125 M] and incubated for an additional 5 min at room temperature. Cells were then pelleted, washed twice with phosphate-buffered saline, ressuspended in SDS lysis buffer, and incubated 10 min on ice. All solutions used prior to the collection of chromatin-antibody complexes contained protease and phosphatase inhibitor cocktail. Cell lysates were sonicated 4 times for 10 s bursts on ice. The sheared chromatin was diluted by the addition of 3 volumes of ChIP dilution buffer (0.01% SDS, 1.1% Triton X-100, 1.2 mM EDTA, 16.7 mM Tris-HCl (pH 8.1), 167 mM NaCl) and pre-cleared with salmon sperm DNA-protein A/G agarose slurry for 2 h. […] The relative proportions of co-immunoprecipitated DNA fragments were determined on the basis of the threshold cycle (CT) for each PCR product. […]

Where two headings read alike, the source gives them in different places.

Take `CN(C)[C@H]1C[C@@]23CC[C@@]4(O2)C(=CC[C@]2(C)C(c5ccc6ccncc6c5)=CC[C@H]24)C=C3[C@@H](O)[C@@H]1O` [dCA, didehydro-Cortistatin A]: the “inhibition of viral replication” value with HIV-1 pNL4-3 (chronically infected cells grown in 100 nM for longer periods) stood at 99%. Moreover, the EC50 in the data set with HIV-1 pNL4-3 (read-out: EC50 for abrogating chronic HIV infection) was less than 0.0001 µM; in the data set on HIV-1 pNL4-3 (treatment for 10 or 60 days, read-out: EC50, reduction of viral cellular RNA levels), not below 0.0001 µM. Besides, the EC90 in the data set with HIV-1 pNL4-3 (treatment for 10 or 60 days, read-out: EC90, reduction of viral cellular RNA levels) is less than 0.01 µM. The “further decrease of p24 production on addition to the ARVs” value in the data set on HIV was found to be 20%. In addition, the CC50 in the data set with HeLa-CD4 cells turned out to be 20 µM; in the data set with HeLa-CD4 cells (cultured cell lines or freshly isolated PBLs, read-out: cytotoxic concentration (CC50)), 20 µM. Besides, the “transcription from CXCR4, TK, PGK or CD4 promoters” value in data set [1] is listed as “not affected”. Further, the “association of RNAPII with the HIV promoter and ORF” value in data set [2] is “significantly decreased”.
